From the NIST ThermoML archive (doi:10.1016/j.fluid.2016.08.002)

Assay: xn = mol fraction of the nth substance listed
Conditions: Gas, Vibrating tube method

S [hydrogen sulfide] + C
Conditions | mass density [kg/m3]
293.23 K, 18686 kPa, x2 = 0.8685 | 200.27
293.23 K, 19770 kPa, x2 = 0.8685 | 210.3
293.23 K, 22173 kPa, x2 = 0.8685 | 230.34
293.23 K, 22860 kPa, x2 = 0.8685 | 235.56
293.27 K, 193 kPa, x2 = 0.8197 | 1.54
293.27 K, 227 kPa, x2 = 0.714 | 1.99
293.27 K, 498 kPa, x2 = 0.8197 | 4.03
293.27 K, 560 kPa, x2 = 0.714 | 4.92
293.27 K, 7261 kPa, x2 = 0.714 | 85.92
293.27 K, 7749 kPa, x2 = 0.714 | 94.83
293.28 K, 1101 kPa, x2 = 0.714 | 9.72
293.28 K, 1547 kPa, x2 = 0.714 | 14.1
293.28 K, 2065 kPa, x2 = 0.714 | 19.16
293.28 K, 8092 kPa, x2 = 0.714 | 103.64
293.29 K, 2976 kPa, x2 = 0.714 | 28.53
293.29 K, 3489 kPa, x2 = 0.714 | 33.95
293.29 K, 8523 kPa, x2 = 0.714 | 108.8
293.29 K, 10516 kPa, x2 = 0.714 | 145.41
293.29 K, 11236 kPa, x2 = 0.714 | 161.66
293.29 K, 13780 kPa, x2 = 0.714 | 213.21
293.29 K, 19219 kPa, x2 = 0.8685 | 205.31
293.29 K, 23988 kPa, x2 = 0.714 | 321.16
293.29 K, 25012 kPa, x2 = 0.714 | 327.5
293.3 K, 2511 kPa, x2 = 0.714 | 23.63
293.3 K, 9149 kPa, x2 = 0.714 | 119.96
293.3 K, 9741 kPa, x2 = 0.714 | 129.36
293.3 K, 11789 kPa, x2 = 0.714 | 174.33
293.3 K, 13528 kPa, x2 = 0.714 | 208.17
293.3 K, 14426 kPa, x2 = 0.714 | 223.09
293.3 K, 15049 kPa, x2 = 0.714 | 233.3
293.3 K, 15503 kPa, x2 = 0.714 | 239.94
293.3 K, 22979 kPa, x2 = 0.714 | 314.55
293.3 K, 23460 kPa, x2 = 0.714 | 317.83
293.3 K, 24512 kPa, x2 = 0.714 | 324.48
293.3 K, 25515 kPa, x2 = 0.714 | 330.43
293.3 K, 25988 kPa, x2 = 0.714 | 333.07
293.31 K, 6513 kPa, x2 = 0.8197 | 63.51
293.31 K, 6885 kPa, x2 = 0.714 | 80.49
293.31 K, 12964 kPa, x2 = 0.714 | 198.31
293.31 K, 14523 kPa, x2 = 0.714 | 224.65
293.31 K, 16108 kPa, x2 = 0.714 | 249.28
293.31 K, 21026 kPa, x2 = 0.714 | 300.53
293.31 K, 22118 kPa, x2 = 0.714 | 308.67
293.31 K, 22512 kPa, x2 = 0.714 | 311.24
293.31 K, 23712 kPa, x2 = 0.714 | 319.93
293.31 K, 26506 kPa, x2 = 0.714 | 335.86
293.32 K, 5019 kPa, x2 = 0.8197 | 46.91
293.32 K, 5508 kPa, x2 = 0.8197 | 52.59
293.32 K, 5943 kPa, x2 = 0.714 | 66.82
293.32 K, 7004 kPa, x2 = 0.8197 | 68.5
293.32 K, 7520 kPa, x2 = 0.8197 | 74.89
293.32 K, 8507 kPa, x2 = 0.8197 | 87.23
293.32 K, 9526 kPa, x2 = 0.8197 | 100.87
293.32 K, 10518 kPa, x2 = 0.8197 | 114.24
293.32 K, 12220 kPa, x2 = 0.714 | 183.56
293.32 K, 12521 kPa, x2 = 0.714 | 189.88
293.32 K, 22053 kPa, x2 = 0.714 | 308.34
293.33 K, 1434 kPa, x2 = 0.8197 | 12.03
293.33 K, 3440 kPa, x2 = 0.8197 | 30.85
293.33 K, 6464 kPa, x2 = 0.714 | 75.29
293.33 K, 8008 kPa, x2 = 0.8197 | 80.89
293.33 K, 9072 kPa, x2 = 0.8197 | 94.8
293.33 K, 10169 kPa, x2 = 0.714 | 136.99
293.33 K, 10922 kPa, x2 = 0.8197 | 121.63
293.33 K, 18012 kPa, x2 = 0.714 | 271.26
293.33 K, 18543 kPa, x2 = 0.714 | 276.99
293.33 K, 19012 kPa, x2 = 0.714 | 281.75
293.33 K, 19476 kPa, x2 = 0.714 | 286.23
293.33 K, 21863 kPa, x2 = 0.714 | 306.8
293.33 K, 26879 kPa, x2 = 0.714 | 337.31
293.33 K, 29517 kPa, x2 = 0.714 | 349.82
293.33 K, 29998 kPa, x2 = 0.714 | 352.02
293.34 K, 6006 kPa, x2 = 0.8197 | 58.11
293.34 K, 14027 kPa, x2 = 0.8197 | 162.75
293.34 K, 14501 kPa, x2 = 0.8197 | 169.12
293.34 K, 16524 kPa, x2 = 0.714 | 253.44
293.34 K, 17035 kPa, x2 = 0.714 | 260.09
293.34 K, 20081 kPa, x2 = 0.714 | 291.58
293.34 K, 20504 kPa, x2 = 0.714 | 295.67
293.34 K, 22090 kPa, x2 = 0.8197 | 248.06
293.35 K, 936 kPa, x2 = 0.8197 | 7.74
293.35 K, 2422 kPa, x2 = 0.8197 | 20.5
293.35 K, 4502 kPa, x2 = 0.8197 | 41.72
293.35 K, 11685 kPa, x2 = 0.8197 | 130.63
293.35 K, 17740 kPa, x2 = 0.714 | 267.95
293.35 K, 21512 kPa, x2 = 0.8197 | 243.53
293.36 K, 1962 kPa, x2 = 0.8197 | 16.56
293.36 K, 12068 kPa, x2 = 0.8197 | 136.11
293.36 K, 12506 kPa, x2 = 0.8197 | 142.15
293.36 K, 13036 kPa, x2 = 0.8197 | 149.41
293.36 K, 13500 kPa, x2 = 0.8197 | 155.72
293.37 K, 10013 kPa, x2 = 0.8197 | 107.38
293.37 K, 15006 kPa, x2 = 0.8197 | 175.59
293.37 K, 22488 kPa, x2 = 0.8197 | 251.05
293.37 K, 26028 kPa, x2 = 0.8197 | 274.53
293.37 K, 27520 kPa, x2 = 0.8197 | 283
293.37 K, 29405 kPa, x2 = 0.8197 | 292.65
293.37 K, 29932 kPa, x2 = 0.8197 | 295.13
293.38 K, 2915 kPa, x2 = 0.8197 | 26.63
293.38 K, 27986 kPa, x2 = 0.8197 | 285.56
293.38 K, 28437 kPa, x2 = 0.8197 | 287.96
293.38 K, 28979 kPa, x2 = 0.8197 | 290.66
293.39 K, 5407 kPa, x2 = 0.714 | 58.83
293.39 K, 22971 kPa, x2 = 0.8197 | 254.58
293.39 K, 24024 kPa, x2 = 0.8197 | 261.83
293.39 K, 24659 kPa, x2 = 0.8197 | 266.01
293.4 K, 17009 kPa, x2 = 0.8197 | 200
293.4 K, 29019 kPa, x2 = 0.714 | 347.54
293.41 K, 16017 kPa, x2 = 0.8197 | 188.26
293.41 K, 17526 kPa, x2 = 0.8197 | 205.67
293.41 K, 19019 kPa, x2 = 0.8197 | 221.14
293.41 K, 19519 kPa, x2 = 0.8197 | 225.91
293.41 K, 20054 kPa, x2 = 0.8197 | 230.93
293.41 K, 21059 kPa, x2 = 0.8197 | 239.83
293.41 K, 23490 kPa, x2 = 0.8197 | 258.21
293.41 K, 25538 kPa, x2 = 0.8197 | 271.56
293.41 K, 27022 kPa, x2 = 0.8197 | 280.18
293.42 K, 3851 kPa, x2 = 0.714 | 38.01
293.42 K, 3941 kPa, x2 = 0.8197 | 35.88
293.42 K, 18033 kPa, x2 = 0.8197 | 211.2
293.42 K, 18536 kPa, x2 = 0.8197 | 216.41
293.42 K, 20511 kPa, x2 = 0.8197 | 234.95
293.42 K, 25034 kPa, x2 = 0.8197 | 268.44
293.42 K, 26523 kPa, x2 = 0.8197 | 277.36
293.42 K, 28586 kPa, x2 = 0.714 | 345.52
293.43 K, 4386 kPa, x2 = 0.714 | 46.59
293.43 K, 28085 kPa, x2 = 0.714 | 343.33
293.44 K, 4823 kPa, x2 = 0.714 | 51.27
293.45 K, 15532 kPa, x2 = 0.8197 | 182.32
293.45 K, 16485 kPa, x2 = 0.8197 | 193.92
293.53 K, 27520 kPa, x2 = 0.714 | 340.85
293.64 K, 27145 kPa, x2 = 0.714 | 339.08
